Values of other authors as cited in patent US12394803B2, “Production method of catalyst, catalyst, production method of composition, composition, electrode, manufacturing method of electrode, fuel cell, metal-air battery” (Azul Energy Inc., priority 2019, dated 2025).

Details: background statement on Patent Document 1

## [Fe+2].c1ccc2c(c1)-c1nc-2nc2[n-]c(nc3nc(nc4[n-]c(n1)c1ccccc41)-c1ccccc1-3)c1ccccc21 [Iron phthalocyanines, Iron phthalocyanine]
  Solubility in 2-propanol: low solubility
